Test results published in publication PMC13478508 (Research, 2026).
No end group written: not given here.

Tests used:
[1] = tested on: hsKir6.2+maSUR1 KATP channel; assay: Whole-cell patch clamp of KATP channel currents in transfected FreeStyle 293-F cells; format: cell-based, Homo sapiens (Kir6.2) / Mesocricetus auratus (SUR1); conditions: 1 μM toxin; whole-cell patch clamp at −40 mV; 5 mM BaCl2 baseline; result in words (Fig. 1A, 3H, 5B)
Experimental: KATP constructs were transfected into FreeStyle 293-F cells using polyethylenimine at a cell density of 1 × 10^6 cells/ml. Cells were cultured in FreeStyle 293 Expression Medium with 1% fetal bovine serum for 24 h before recording. Currents were recorded using whole-cell mode at −40 mV in the pipette and an Axon-patch 200B amplifier (Axon Instruments, USA). Patch electrodes were pulled by a horizontal microelectrode puller (P-1000, Sutter Instrument Co, USA) to tip resistance of 2.0 to 3.0 MΩ. Pipette solution containing 107 mM KCl, 1.2 mM MgCl2, 1 mM CaCl2, 10 mM EGTA, 5 mM Hepes (pH 7.2, KOH), and bath solution containing 40 mM KCl, 100 mM NaCl, 2.6 mM CaCl2, 1.2 mM MgCl2, and 5 mM Hepes (pH 7.4, NaOH) were used for measuring inhibitory effect of wild-type and mutant toxins. Application of 5 mM BaCl2 in bath solution was used to block the KATP currents to determine the baseline. Data analysis was carried out using GraphPad Prism 8.0 or 10.4.0.

[2] = target: the molecule itself; assay: cryo-EM structure

## Sm3a: toxin from the centipede Scolopendra morsitans (P0DQC2.1), recombinantly expressed; novel KATP channel blocker (AKKEIPYKRQKFPKKSQCIEACANALTNGDKSKITDVKSRFYKCICYYNP; also: two disulfide bonds, pairing not given here for this toxin)
[1]
  Inhibition of whole-cell KATP current: strongly blocks currents

B1: human Kir6.2 (Q52E) subunit of the cleaved KATP fusion protein (natural protein)
chain: GPLSRKGIIPEEYVLTRLAEDPAKPRYRARQRRARFVSKKGNCNVAHKNIREEGRFLQDVFTTLVDLKWPHTLLIFTMSFLCSWLLFAMAWWLIAFAHGDLAPSEGTAEPCVTSIHSFSSAFLFSIEVQVTIGFGGRMVTEECPLAILILIVQNIVGLMINAIMLGCIFMKTAQAHRRAETLIFSKHAVIALRHGRLCFMLRVGDLRKSMIISATIHMQVVRKTTSPEGEVVPLHQVDIPMENGVGGNSIFLVAPLIIYHVIDANSPLYDLAPSDLHHHQDLEIIVILEGVVETTGITTQARTSYLADEILWGQRFVPIVAEEDGRYSVDYSKFGNTVKVPTPLCTARQLDEDHSLLEALTLASARGPLRKRSVPMAKAKPKFSISPDSLS
notes: also called hsKir6.2; hsKir6.2 (Q52E)
[2]
  stoichiometry N: 4
